The values below come from patent publication US20220370450A1, “CONTROLLED-RELEASE COMPOSITION FOR ORAL ADMINISTRATION COMPRISING COMPLEX OF ALPHA ADRENERGIC BLOCKER COMPOUND AND CLAY MINERAL” (Korea Institute Of Geoscience And Mineral Resources, priority 2019, published 2022).

Where only a bound is given, the exact number is not on record here.

Data set [1] in a line: Drug release experiment using a semi-permeable membrane. The class given is physicochemical. The following applies: for elution rate: in both pH 1.2 and 7.8; for time within which most of the drug was released / drug released within initial 1 hour: semi-permeable membrane bag, cut-off 12,000 to 14,000 Da, 37° C.; for drug released within initial 1 hour: eluate pH 1.2 or pH 7.8; for release rate (membrane release amount of drug per unit time) of the drug solution relative to the drug-bentonite complex dispersion solution: semi-permeable membrane cut-off 12,000 to 14,000 Da. How it is done: The amount of the drug-bentonite complex was adjusted so that the drug final concentration inside the elution system became 1 μg/ml. At this time, as the eluate, a 0.1 N hydrochloric acid solution of pH 1.2 and a phosphate buffer of pH 7.8 were used and the elution was performed while maintaining 37° C. While the eluate outside the semi-permeable membrane was partially taken by time and the same amount of eluate was compensated, the experiment was conducted, and the drug concentration of the taken sample was analyzed using high performance liquid chromatography.

The conditions of data set [2]: rat, in vivo, po, 1 mg/kg.
Protocol: (§1) The breeding conditions of the experimental animals were as follows.
(§2) After the femoral region of the fixed rat was shaved, the blood-gathering was prepared by injecting a cannula. A drug-bentonite complex dispersion solution as an experimental group and a drug aqueous solution as a control group were administered using an oral zonde and then a certain amount of plasma was collected through the cannula for each predetermined time and the plasma drug concentration was measured.
(§3) The drug concentrations in the plasma samples were analyzed using a mass spectrometer.
Another data set can be described thus: in vivo. The conditions noted are these: Sprague-Dawley, rat, po, 1 mg/kg.

Protocol for in vivo: as §1, §2, §3

Usually AUC(0-t) stands for the area under the concentration-time curve up to a stated or last time point. Read a low AUC(0-t) as less exposure. A word on the Cmax: it is the highest concentration seen after dosing. By Tmax is commonly meant the time from dosing to the highest level. As a reminder, the bioavailability is the share of a dose that reaches the circulation, judged against a reference dose that is usually intravenous. Higher therefore signals good availability. With `COc1cc2nc(N3CCN(C(=O)C4COc5ccccc5O4)CC3)nc(N)c2cc1OC` (centres unmarked) [Doxazosin, doxazosin], in data set [1] (after 4 hours of the test), the “release amount of the drug solution relative to the complex dispersion solution” value is “two times larger”. In data set [1], the elution rate entry is reported as “fast elution rate”, the “time within which most of the drug was released” value was ≤ 4 h, the “drug released within initial 1 hour” value is recorded as ≥ 50% and the “release rate (membrane release amount of drug per unit time) of the drug solution relative to the drug-bentonite complex dispersion solution” value is “two times larger”. The “time within which the plasma concentration reached the maximum plasma concentration (Cmax)” value in data set [2] was in the range of 30 to 60 min. Moreover, in “in vivo”, the AUC(0-t) was determined as 186 ± 54.7 ng·h/mL, the highest level (Cmax) was 67.3 ± 14.2 ng/mL, the Tmax came out at 45 ± 15 min and the bioavailability was 100%.

`COc1cc2nc(N3CCN(C(=O)c4ccco4)CC3)nc(N)c2cc1OC` [Prazosin, prazosin]: in data set [1] (after 2 hours of the test, pH 1.2), the “release amount of the drug solution relative to the complex dispersion solution” value was “two times larger”. Also, the “release amount of the drug solution relative to the complex dispersion solution” value in data set [1] (after 2 hours of the test, pH 7.8) is recorded as “significantly larger”. For the same compound, in data set [1], the elution rate entry was “fast elution rate”, the “time within which most of the drug was released” value was ≤ 4 h, the “drug released within initial 1 hour” value is ≥ 70% and the “release rate (membrane release amount of drug per unit time) of the drug solution relative to the drug-bentonite complex dispersion solution” value is given as “larger”. Further, in “in vivo”, the AUC(0-t) was 247 ± 45.1 ng·h/mL, the highest level (Cmax) was 129 ± 36.2 ng/mL, the time to peak (Tmax) was 22.8 ± 7.8 min and the bioavailability was determined as 100%.
